Test results: patent US12599676B2, “Cytotoxic imidazo[1,2-A]pyridine compounds and their use in therapy” (MyricX Pharma Limited, priority 2022, dated 2026)

How the values were obtained:
[1] = system: BT474 breast cancer cells; assay: Orthotopic BT474 breast cancer xenograft model; assay type: in vivo, NOD/SCID mice; conditions: 2.0 mg/kg IV, 2 days dosing then 5 day holiday (Group 6), stopped at day 13
Experimental: NOD/SCID mice were implanted with estrogen pellets (17β-estradiol, 60 day release, 0.36 mg) subcutaneously in the right flank one day before the tumour inoculation. On day −8 each mouse was then injected in the right mammary fat pad with 1×10^7 viable BT474 breast cancer cells resuspended in 0.2 mL of Phosphate Buffered Saline mixed with matrigel (1:1). Mice were assigned to treatment groups when tumour volumes averaged 149.78 mm^3 on study day 0. […] The study was terminated on Study Day 35.
Each group was comprised of 10 mice. Tumour volumes in mice were measured three times per week and tumour volume was calculated using the formula 0.5 (L×W^2). […] Statistical analyses were carried out on tumour readings for Groups 1, 2, 3, 4 and 5 up to Study Day 23 (after this point >50% of the animals within one of the study groups were lost; Group 2) using two-way ANOVA, or a Mixed-Effects model was fitted when values were missing from groups (PRISM GraphPad Software Inc.).
Tumour Growth Inhibition, ΔTGI %=((mean(C)−mean (CO))−(mean(T)−mean(TO)))/(mean(C)−mean(CO))×100% where T is the mean tumour volume on the measurement day and TO is the mean tumour volume of the treated group on Study Day 0. C is the mean tumour volume of the control Group 1 mice on the measurement day and CO is the mean tumour volume on Study Day 0.

mouse hepatocytes = assay: Hepatocyte metabolic stability, mouse; assay type: in vitro ADME
Experimental: Biological Example 6: Rat hepatocyte half life Certain Example compounds and Comparator Compound 1 were tested for metabolic stability in a metabolic assay using mouse- and rat-derived hepatocytes. Compounds having good metabolic stability in the assay are expected to be especially useful as agents for preventing and/or treating cancer, by having a long half-life in human patients.
Frozen pooled rat and mouse hepatocytes obtained from LifeTechnologies were thawed and purified according to the manufacturer's instructions. The test compound (4 mM) in DMSO was diluted with acetonitrile to provide a 100 μM sub-stock then further diluted with pH 7.4 Krebs-Henseleit buffer (supplemented with CaCl2, NaHCO3, HEPES, fructose and glycine) to provide a 2 μM working solution. 25 μL of working solution was incubated at 37° C., treated with 25 μL of rat or mouse hepatocyte suspension (containing 1×10^6 cells/mL) and incubated at 37° C. with 5% CO2 level at 95% relative humidity. Wells were incubated for an appropriate time (0, 15, 30, 45, 60 and 75 min) then quenched with 250 μL of acetonitrile containing reference standards diltiazem, 7-ethoxycoumarin and propranolol). The plates were shaken, sonicated for 5 min then cooled to 4° C. until all sampling was complete. All plates were centrifuged at 4000 rpm for 20 min to pellet the debris. 110 μL supernatant was diluted 110 μL water and quantitated using LC-MS/MS.
A linear regression curve was fitted to a plot of natural logarithm (In) of AUC against time. The T-half (min)=0.693/slope

[2] = system: MX-1 (human breast carcinoma); assay: Cell cytotoxicity CellTiter-Glo, MX-1; assay type: cell-based; conditions: MX1
Experimental: (§1) Cells were seeded in 96-well microplates and treated with compounds or cisplatin (as a positive control) at 9 increasing concentrations in technical triplicate. […] On day 1, 90 μL of various cell suspensions with the number of cells ranging from 5000-8000 cells/well were seeded into wells of a 96-well plate (Corning). The number of cells to be seeded was previously determined. • 2. All 96-wells plates with cells were placed in an incubator overnight at 37° C. with 5% CO2. • 3. On day 2, cells were observed under a microscope ensuring the cells treated with vehicle control were in good condition. • 4. A dilution series of the test compounds and cisplatin were prepared at 10× the final concentrations required. 10 μL/well of 10× compound solution was added to the corresponding plates. The final volume was 100 μL/well for all the plates. Final DMSO concentration was 0.1%. • 5. On day 5 (after 72 hours of incubation), 50 μL of CTG reagent was added to each well. • 6. Contents were mixed for 5 minutes on an orbital shaker to facilitate cell lysis. • 7. The plate was allowed to incubate at room temperature for 10 minutes to stabilize luminescent signals. […]

[3] = system: CA46 (human B cell lymphoma); assay: Cell cytotoxicity CellTiter-Glo, CA46; assay type: cell-based
Experimental: as §1

[4] = system: HT1080 (human fibrosarcoma); assay: Cell cytotoxicity CellTiter-Glo, HT1080; assay type: cell-based; conditions: HT-1080
Experimental: as §1

| mHeps t^1/2 (mouse hepatocytes) [min] | SMILES | tumour size [1] | IC50 [2] [nM] | IC50 [3] [nM] | IC50 [4] [nM] |
| --- | --- | --- | --- | --- | --- |
| – | CNCc1cnc2ccc(-c3ccc(F)c(F)c3OCCc3c(C(O)C(C)(C)C)nn(C)c3C)cn12 (single isomer, unassigned) [Example 12, 1-(4-(2-(2,3-difluoro-6-(3-((methylamino)methyl)imidazo[1,2-a]pyridin-6-yl)phenoxy)ethyl)-1,5-dimethyl-1H-pyrazol-3-yl)-2,2-dimethylpropan-1-ol] | reduced tumour size | – | – | – |
| 127.68 | Cc1c(CCOc2cc(Cl)ccc2-c2ccc3ncc(CCN)n3c2)c(C(=O)N(C)C)nn1C [Comparator Compound 1, 4-(2-{2-[3-(2-aminoethyl)imidazo[1,2-a]pyridin-6-yl]-5-chlorophenoxy}ethyl)-N,N,1,5-tetramethyl-1H-pyrazole-3-carboxamide, reference compound] | – | 40 | 613 | 6.4 |
